The test system of one data set is Plasmodium falciparum. Description: Antimalarial activity against chloroquine and pyrimethamine-resistant Plasmodium falciparum K1 after 48 hrs as [3H]hypoxanthine uptake. The data set is classed as functional, organism-based.
The test system of data set [1] is Trypanosoma brucei rhodesiense. Nature of the data set: Antitrypanosomal activity against Trypanosoma brucei rhodesiense after 72 hrs by alamar blue assay. The data set is classed as functional, organism-based. A general note: Resazurin is reduced to fluorescent resorufin, in cell work by metabolically active cells.
In the next data set the test system is L6. Nature of the data set: Cytotoxicity against rat L6 cells after 72 hrs by alamar blue assay. The data set is classed as cell-based. To be noted: L6, 72 h.
Data set [2] is described as follows: Selectivity index, ratio of IC50 for rat L6 cells to IC50 for Plasmodium falciparum K1. It is filed as toxicity, cell-based. The conditions noted are these: L6 cells (versus Plasmodium falciparum K1), read-out: Ratio IC50.
Data set [3] can be described thus: Selectivity index, ratio of IC50 for rat L6 cells to IC50 for Trypanosoma brucei rhodesiense. It is filed as toxicity, cell-based. To be noted: L6 cells (versus Trypanosoma brucei rhodesiense), read-out: Ratio IC50.
Data set [4] deals with Plasmodium berghei. Nature of the data set: Antiplasmodial activity against Plasmodium berghei ANKA infected Fu albino mice (Mus musculus) at 0.01 mL/kg intraperitoneal dose at 24 hrs as parasitaemia per 1000 erythrocytes. It is filed as functional.
Data set [5] deals with Plasmodium berghei. Nature of the data set: Antiplasmodial activity as increased MST against Plasmodium berghei ANKA infected Fu albino mice (Mus musculus) at 0.01 mL/kg intraperitoneal dose after 24 hrs. It is filed as functional, organism-based.

Usually IC50 stands for the midpoint of a concentration-inhibition curve.

Activity calls are given as the source filed them. No cut-off for these calls is given here.

In the case of `CN1CCN(CC(=O)NC2CC3(N4CCCCC4)CC(c4ccccc4)C2C(c2ccccc2)C3)CC1` (racemic), the results for the concentration for half-maximal inhibition (IC50) (in the data set with Plasmodium falciparum; in data set [1]; with L6) were 0.38 µM, 0.69 µM and 57.5 µM, respectively. Moreover, the selectivity ratio is 151 in data set [2] and 83.4 in data set [3].

For the compound `CN1CCN(CCC(=O)N2CCC3(N(C)C)CC(c4ccccc4)C2C(c2ccccc2)C3)CC1` (racemic), the results for the IC50 (in the data set on Plasmodium falciparum; in data set [1]; with L6) were 1.74 µM, 28.2 µM and 128 µM, respectively. Also, the selectivity ratio in data set [2] is 73.5; in data set [3] it was 4.52.

For `CN1CCN(CC(=O)NC2CC3(N4CCCC4)CC(c4ccccc4)C2C(c2ccccc2)C3)CC1` (racemic), the results for the IC50 (with Plasmodium falciparum; in data set [1]; in the data set on L6) were 0.82 µM, 1.13 µM and 50.2 µM, respectively. The selectivity ratio in data set [2] worked out at 61.3; in data set [3], 44.5.

Consider `CCN(CC)CC(=O)OC1CC2(N3CCCCC3)CC(c3ccccc3)C1C(c1ccccc1)C2` (centres undefined), for which the results for the 50% inhibitory concentration (IC50) (in the data set on Plasmodium falciparum; in data set [1]; in the data set on L6) were 0.25 µM, 0.56 µM and 23.9 µM, respectively. Further, the selectivity ratio in data set [2] was 95.7; in data set [3], 42.7.

Compound `CCN(CC)CCCC(C)Nc1ccnc2cc(Cl)ccc12` (centres undefined) [CHLOROQUINE] yielded an IC50 in the data set with L6 of 188 µM.

With `CCN(CC)CC(=O)OC1CC2(N(C)C)CC(c3ccccc3)C1C(c1ccccc1)C2` (centres undefined), the IC50 amounted to 2.72 µM in the data set with Plasmodium falciparum, 0.61 µM in data set [1] and 30.1 µM in the data set on L6. The selectivity ratio in data set [2] was determined as 11.1; in data set [3], 49.4.

With `CN1CCN(CC(=O)N2CCC3(N4CCCC4)CC(c4ccccc4)C2C(c2ccccc2)C3)CC1` (racemic), the IC50 is 0.83 µM with Plasmodium falciparum, 41.1 µM in data set [1] and 69.1 µM in the data set on L6. In addition, the selectivity ratio in data set [2] amounted to 83.2; in data set [3] it was 1.68.

With `CN1CCN(CC(=O)NC2CC3(N(C)C)CC(c4ccccc4)C2C(c2ccccc2)C3)CC1` (racemic), the IC50 was 2.58 µM in the data set with Plasmodium falciparum, 1.6 µM in data set [1] and 66.2 µM in the data set on L6. Besides, the selectivity ratio in data set [2] turned out to be 25.7; in data set [3], 41.4.

As to `CN(C)C12CC(OC(=O)CN3CCCCC3)C(C(c3ccccc3)C1)C(c1ccccc1)C2` (centres undefined), the 50% inhibitory concentration (IC50) was 0.52 µM in the data set on Plasmodium falciparum, 1.99 µM in data set [1] and 29.3 µM with L6. In addition, the figures for the selectivity ratio in data set [2] and in data set [3] were 56.3 and 14.7, respectively.

With `CN1CCN(CC(=O)OC2CC3(N(C)C)CC(c4ccccc4)C2C(c2ccccc2)C3)CC1` (racemic), the concentration for half-maximal inhibition (IC50) with Plasmodium falciparum worked out at 0.35 µM; in data set [1] it was 0.13 µM; in the data set with L6, 39.9 µM. Further, the selectivity ratio was 114 in data set [2] and 307 in data set [3].

On to `NC1CC2(N3CCCCC3)CC(c3ccccc3)C1C(c1ccccc1)C2` (centres undefined), for which the half-inhibitory concentration (IC50) in the data set with Plasmodium falciparum amounted to 0.55 µM; in data set [1], 0.27 µM; in the data set with L6 it was 35 µM. For the same compound, the figures for the selectivity ratio in data set [2] and in data set [3] were 63.5 and 129, respectively.

`CN1CCN(CCC(=O)N2CCC3(N4CCCC4)CC(c4ccccc4)C2C(c2ccccc2)C3)CC1` (racemic): the results for the concentration for half-maximal inhibition (IC50) (with Plasmodium falciparum; in data set [1]; in the data set on L6) were 0.9 µM, 31.9 µM and 75.4 µM, respectively. Moreover, the selectivity ratio in data set [2] was determined as 83.8; in data set [3] it was 2.36.

With `CN1CCN(CCC(=O)NC2CC3(N4CCCCC4)CC(c4ccccc4)C2C(c2ccccc2)C3)CC1` (racemic), the IC50 came to 0.28 µM with Plasmodium falciparum, 0.86 µM in data set [1] and 61.1 µM in the data set with L6. Further, the selectivity ratio in data set [2] worked out at 218; in data set [3] it was 71.

For the compound `O=C(CN1CCCCC1)OC1CC2(N3CCCC3)CC(c3ccccc3)C1C(c1ccccc1)C2` (centres undefined), the IC50 with Plasmodium falciparum was 0.37 µM; in data set [1], 0.37 µM; in the data set with L6 it was 14.2 µM. Further, the selectivity ratio in data set [2] and in data set [3] was 38.4 throughout.

In the case of `CN(C)C12CC(N)C(C(c3ccccc3)C1)C(c1ccccc1)C2` (centres undefined), the IC50 with Plasmodium falciparum came to 0.61 µM; in data set [1], 0.35 µM; in the data set with L6 it was 40.9 µM. Also, the selectivity ratio in data set [2] is 67; in data set [3], 117.

On to `CN(C)C12CC(OC(=O)CN3CCCC3)C(C(c3ccccc3)C1)C(c1ccccc1)C2` (centres undefined), for which the values for the IC50 (with Plasmodium falciparum; in data set [1]; in the data set on L6) were 0.71 µM, 0.21 µM and 32.7 µM, respectively. For the same compound, the results for the selectivity ratio in data set [2] and in data set [3] were 46 and 156, respectively.

On to `C[C@@H]1CC[C@H]2[C@@H](C)C(=O)O[C@@H]3O[C@@]4(C)CC[C@@H]1[C@]32OO4` [ARTEMISININ], for which the IC50 in the data set on Plasmodium falciparum is 0.0064 µM; in the data set with L6 it was 450 µM. Also, the selectivity ratio in data set [2] was found to be 70400.

As to `CN1CCN(CC(=O)N2CCC3(N4CCCCC4)CC(c4ccccc4)C2C(c2ccccc2)C3)CC1` (racemic), the IC50 in the data set with Plasmodium falciparum was 0.62 µM; in data set [1], 92 µM; in the data set on L6, 177 µM. Besides, the selectivity ratio is 286 in data set [2] and 1.93 in data set [3].

For `CN1CCN(CC(=O)N2CCC3(N(C)C)CC(c4ccccc4)C2C(c2ccccc2)C3)CC1` (racemic), the IC50 in the data set with Plasmodium falciparum was determined as 2.37 µM; in data set [1], 45.8 µM; in the data set on L6, 195 µM. Also, the selectivity ratio in data set [2] is 82.4; in data set [3], 4.27.

With `c1ccc(C2CC3(N4CCCCC4)CCNC2C(c2ccccc2)C3)cc1` (centres undefined), the 50% inhibitory concentration (IC50) is 0.64 µM in the data set with Plasmodium falciparum, 6.57 µM in data set [1] and 89.7 µM in the data set with L6. The selectivity ratio in data set [2] turned out to be 140; in data set [3], 13.7.

`CN1CCN(CC(=O)OC2CC3(N4CCCCC4)CC(c4ccccc4)C2C(c2ccccc2)C3)CC1` (racemic): the figures for the concentration for half-maximal inhibition (IC50) (with Plasmodium falciparum; in data set [1]; with L6) were 0.106 µM, 0.87 µM and 29.5 µM, respectively. The figures for the selectivity ratio in data set [2] and in data set [3] were 278 and 33.9, respectively. In addition, the Activity with Plasmodium berghei [4] was 15%. Also, the outcome in the data set with Plasmodium berghei [5] was inactive.

As to `CN1CCN(CC(=O)OC2CC3(N4CCCC4)CC(c4ccccc4)C2C(c2ccccc2)C3)CC1` (racemic), the concentration for half-maximal inhibition (IC50) in the data set with Plasmodium falciparum is 0.54 µM; in data set [1], 0.14 µM; with L6 it was 24.6 µM. Moreover, the results for the selectivity ratio in data set [2] and in data set [3] were 45.5 and 176, respectively.

Take `CN1CCN(CCC(=O)N2CCC3(N4CCCCC4)CC(c4ccccc4)C2C(c2ccccc2)C3)CC1` (racemic): the 50% inhibitory concentration (IC50) was 0.6 µM with Plasmodium falciparum, 30.8 µM in data set [1] and 120 µM in the data set on L6. Also, the selectivity ratio is 200 in data set [2] and 3.89 in data set [3].

As to `Nc1nc(N)nc(Nc2ccc([As]3SCC(CO)S3)cc2)n1` (centres undefined) [MELARSOPROL], the IC50 worked out at 0.0039 µM in data set [1] and 7.78 µM in the data set with L6. The selectivity ratio in data set [3] was 2000.

On to `CN1CCN(CCC(=O)NC2CC3(N(C)C)CC(c4ccccc4)C2C(c2ccccc2)C3)CC1` (racemic), for which the IC50 amounted to 4.19 µM in the data set with Plasmodium falciparum, 2.74 µM in data set [1] and 95 µM in the data set with L6. Further, the figures for the selectivity ratio in data set [2] and in data set [3] were 22.7 and 34.7, respectively.

Take `NC1CC2(N3CCCC3)CC(c3ccccc3)C1C(c1ccccc1)C2` (centres undefined): the values for the IC50 (in the data set on Plasmodium falciparum; in data set [1]; in the data set on L6) were 0.65 µM, 0.41 µM and 38.1 µM, respectively. For the same compound, the selectivity ratio in data set [2] worked out at 58.6; in data set [3] it was 92.9.

With `CN(C)C12CCNC(C(c3ccccc3)C1)C(c1ccccc1)C2` (centres undefined), the 50% inhibitory concentration (IC50) came to 0.28 µM in the data set with Plasmodium falciparum, 0.6 µM in data set [1] and 109 µM in the data set with L6. Besides, the selectivity ratio worked out at 389 in data set [2] and 181 in data set [3].

With `CN1CCN(CCC(=O)NC2CC3(N4CCCC4)CC(c4ccccc4)C2C(c2ccccc2)C3)CC1` (racemic), the figures for the IC50 (with Plasmodium falciparum; in data set [1]; in the data set on L6) were 2.08 µM, 4.15 µM and 86.7 µM, respectively. Besides, the selectivity ratio in data set [2] amounted to 41.7; in data set [3], 20.9.

Consider `O=C(CN1CCCCC1)OC1CC2(N3CCCCC3)CC(c3ccccc3)C1C(c1ccccc1)C2` (centres undefined), for which the concentration for half-maximal inhibition (IC50) was 0.18 µM in the data set on Plasmodium falciparum, 0.87 µM in data set [1] and 60.4 µM in the data set on L6. Also, the selectivity ratio came out at 336 in data set [2] and 69.4 in data set [3].

For the compound `NCC(=O)OC1CC2(N3CCCC3)CC(c3ccccc3)C1C(c1ccccc1)C2` (centres undefined), the IC50 was found to be 0.7 µM in the data set with Plasmodium falciparum, 0.23 µM in data set [1] and 42.9 µM with L6. Further, the selectivity ratio in data set [2] was found to be 61.3; in data set [3] it was 187.

With `c1ccc(C2CC3(N4CCCC4)CCNC2C(c2ccccc2)C3)cc1` (centres undefined), the 50% inhibitory concentration (IC50) came out at 0.56 µM with Plasmodium falciparum, 1.16 µM in data set [1] and 120 µM in the data set on L6. In addition, the selectivity ratio in data set [2] came out at 215; in data set [3] it was 104.

`O=C(CN1CCCC1)OC1CC2(N3CCCCC3)CC(c3ccccc3)C1C(c1ccccc1)C2` (centres undefined): the figures for the IC50 (with Plasmodium falciparum; in data set [1]; with L6) were 0.47 µM, 0.32 µM and 16.4 µM, respectively. Moreover, the selectivity ratio in data set [2] amounted to 34.9; in data set [3], 51.2.

Turning to `CCN(CC)CC(=O)OC1CC2(N3CCCC3)CC(c3ccccc3)C1C(c1ccccc1)C2` (centres undefined), the half-maximal inhibitory concentration (IC50) with Plasmodium falciparum stood at 0.2 µM; in data set [1], 0.72 µM; in the data set on L6 it was 49 µM. The selectivity ratio in data set [2] worked out at 245; in data set [3], 68.1.

The record behind these values is ChEMBL document CHEMBL1136884, “Antiplasmodial and antitrypanosomal activity of bicyclic amides and esters of dialkylamino acids” (Bioorg Med Chem, 2009).
